This is an account of results in ChEMBL document CHEMBL3870348, “Discovery of a new isomannide-based peptidomimetic synthetized by Ugi multicomponent reaction as human tissue kallikrein 1 inhibitor” (Bioorg Med Chem Lett, 2017).

As a reminder, the IC50 is the concentration that inhibits the measured activity by half. As usually defined, the Ki is a dissociation constant, usually derived from enzyme kinetics or from competition with a known ligand.

Molecules are shown by their SMILES. Activity calls are given as the source filed them. The calls are words filed in the database; no cut-off is given here.

In test [1] the target is T1, Kallikrein-1 (Homo sapiens, UniProt P06870). Put plainly: Inhibition of recombinant human KLK1 expressed in baculovirus/insect cell expression system at 100 uM using Abz-KLRSSKQ-EDDnp peptide as substrate preincubated for 5 mins followed by substrate addition by FRET assay.
Target sequence in this assay (P06870 25-262 limits assumed): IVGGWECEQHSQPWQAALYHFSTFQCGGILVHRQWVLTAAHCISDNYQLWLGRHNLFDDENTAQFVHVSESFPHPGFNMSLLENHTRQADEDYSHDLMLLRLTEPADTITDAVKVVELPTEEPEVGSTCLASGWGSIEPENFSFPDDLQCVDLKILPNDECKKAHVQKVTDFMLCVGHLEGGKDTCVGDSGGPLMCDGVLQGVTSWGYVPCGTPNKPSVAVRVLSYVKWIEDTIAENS
Test [2] has as its target T1, Kallikrein-1. Description: Inhibition of recombinant human KLK1 expressed in baculovirus/insect cell expression system using Abz-KLRSSKQ-EDDnp peptide as substrate preincubated for 5 mins followed by substrate addition by FRET assay.
Target sequence in this assay (P06870 whole entry): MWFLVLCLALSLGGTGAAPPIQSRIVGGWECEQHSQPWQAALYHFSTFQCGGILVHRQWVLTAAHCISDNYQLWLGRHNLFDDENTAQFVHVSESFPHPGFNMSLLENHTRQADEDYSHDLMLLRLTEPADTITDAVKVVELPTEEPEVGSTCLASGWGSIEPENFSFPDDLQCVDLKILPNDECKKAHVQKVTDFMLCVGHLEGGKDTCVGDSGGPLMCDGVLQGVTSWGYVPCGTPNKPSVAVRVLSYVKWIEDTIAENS
Test [3] concerns the target T2, Kallikrein-7 (Homo sapiens, UniProt P49862). Put plainly: Inhibition of recombinant human KLK7 expressed in baculovirus/insect cell expression system using Abz-KLYSSKQ-EDDnp peptide as substrate preincubated for 5 mins followed by substrate addition by FRET assay.
Target sequence in this assay (P49862 whole entry): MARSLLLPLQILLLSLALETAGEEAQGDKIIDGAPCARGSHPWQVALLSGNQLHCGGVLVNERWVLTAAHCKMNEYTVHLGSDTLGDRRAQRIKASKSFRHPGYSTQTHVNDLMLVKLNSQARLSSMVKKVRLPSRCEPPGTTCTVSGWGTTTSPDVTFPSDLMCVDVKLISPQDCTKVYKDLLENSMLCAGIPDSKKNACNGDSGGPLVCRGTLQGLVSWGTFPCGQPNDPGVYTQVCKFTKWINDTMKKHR
In test [4] the target is T2, Kallikrein-7. Description: Inhibition of recombinant human KLK7 expressed in baculovirus/insect cell expression system at 100 uM using Abz-KLYSSKQ-EDDnp peptide as substrate preincubated for 5 mins followed by substrate addition by FRET assay.
Target sequence in this assay (P49862 30-253 limits assumed): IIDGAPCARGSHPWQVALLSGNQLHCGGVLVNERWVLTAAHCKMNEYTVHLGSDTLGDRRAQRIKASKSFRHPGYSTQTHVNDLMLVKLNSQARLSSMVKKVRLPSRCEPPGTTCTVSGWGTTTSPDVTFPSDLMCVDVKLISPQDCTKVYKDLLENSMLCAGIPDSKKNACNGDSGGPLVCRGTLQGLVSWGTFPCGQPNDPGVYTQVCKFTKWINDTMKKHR
Test [5] addresses T1, Kallikrein-1. Description: Reversible competitive inhibition of recombinant human KLK1 expressed in baculovirus/insect cell expression system using Abz-KLRSSKQ-EDDnp peptide as substrate at 2 to 8 uM by Lineweaver-Burk plot analysis.
Target sequence in this assay (P06870 25-262 limits assumed): as the sequence (P06870 25-262 limits assumed) above
In test [6] the target is T1, Kallikrein-1. Put plainly: Competitive inhibition of recombinant human KLK1 expressed in baculovirus/insect cell expression system using Abz-KLRSSKQ-EDDnp peptide as substrate by Dixon plot analysis.
Target sequence in this assay (P06870 whole entry): as the sequence (P06870 whole entry) above

With `CC(C)(C(=O)NC1CCCCC1)N(C(=O)Cc1ccc(F)cc1)[C@H]1CO[C@H]2[C@@H]1OC[C@H]2OCc1ccccc1`, the inhibition result at Kallikrein-1 [1] and at Kallikrein-7 [4] was “Active” each time. Moreover, the IC50 on Kallikrein-1 [2] came to 221 µM; on Kallikrein-7 [3], 185 µM.

For `CC(C)(C(=O)NC1CCCCC1)N(C(=O)Cc1ccc(O)cc1)[C@H]1CO[C@H]2[C@@H]1OC[C@@H]2N(C(=O)Cc1ccc(O)cc1)C(C)(C)C(=O)NC1CCCCC1`, the inhibition result on Kallikrein-1 [1] and on Kallikrein-7 [4] was “Active” in each case. In addition, the IC50 at Kallikrein-1 [2] came to 12.6 µM; at Kallikrein-7 [3], 133 µM.

Turning to `CC(C)(C(=O)NC1CCCCC1)N(C(=O)Cc1ccc(O)cc1)[C@H]1CO[C@H]2[C@@H]1OC[C@H]2OCc1ccccc1`, the inhibition result on Kallikrein-1 [5], on Kallikrein-1 [1] and on Kallikrein-7 [4] was “Active” throughout. The Ki at Kallikrein-1 [6] was determined as 3.1 µM. For the same compound, the 50% inhibitory concentration (IC50) at Kallikrein-1 [2] came out at 4 µM; on Kallikrein-7 [3], 249 µM.

Take `CC(C)(C(=O)NC1CCCCC1)N(C(=O)c1ccccc1)[C@H]1CO[C@H]2[C@@H]1OC[C@H]2OCc1ccccc1`: the inhibition entry at Kallikrein-1 [1] and on Kallikrein-7 [4] was “Active” in each case. Also, the values for the IC50 at Kallikrein-1 [2] and at Kallikrein-7 [3] were 400 µM and 572 µM, respectively.

In the case of `COc1ccc(CC(=O)N([C@H]2CO[C@H]3[C@@H]2OC[C@H]3OCc2ccccc2)C(C)(C)C(=O)NC2CCCCC2)cc1`, the inhibition entry on Kallikrein-1 [1] and on Kallikrein-7 [4] was “Active” each time. Further, the half-inhibitory concentration (IC50) at Kallikrein-1 [2] came to 125 µM; at Kallikrein-7 [3] it was 272 µM.
